Source: patent US4593090A, “Novel nitrosourea compounds, method for preparing same, and pharmaceutical composition containing same” (Gogo Kimura, priority 1981, dated 1986)

How the values were obtained:
Leukemia L1210 = experiment: Activity against Leukemia L1210, intraperitoneal, increase in life span of mice; assay type: in vivo, female mice (BDF1 family); details: for ED (maximum ILS) / ED30: Mus musculus, L1210, ip, ip once a day for 5 successive days; for ED (maximum ILS): daily dosage giving maximum increase of life span, read-out: O.D. (optimum dosage); for ED30: daily dosage increasing average survival days by 30%, read-out: ILS30; for Survivors after 60 days / Max. ILS % / Therapeutic ratio TR: ip; for Survivors after 60 days: 6-membered group; for Max. ILS %: 60-day observation, versus control; for Therapeutic ratio TR: O.D./ILS30
How it was run: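 Female BDF1 mice (20 to 23 g; 6 per group) were implanted intraperitoneally with 1×10^5 L1210 cells, then dosed ip or orally once daily for 5 days starting 24 h later. Survival was followed over 60 days, and ILS% was derived from mean survival days versus untreated controls.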

[1] = Acute toxicity (LD50, Behrens-Karber method); assay type: in vivo, ICR mice; details: mouse, in vivo, ip, mortality during 30 days
Description: Test compounds, dissolved or suspended in 0.5% aqueous CMC, were each intraperitoneally administered to ICR mice in a dose of 0.1 ml per 10 g body weight. LD50 (mg/kg) value of each test compound was calculated from the mortality of mice during 30 days by the Behrens-Karber method.

| Structure (SMILES) | ED (maximum ILS) (Leukemia L1210) | ED30 (Leukemia L1210) | Survivors after 60 days (Leukemia L1210) | Max. ILS % (Leukemia L1210) | Therapeutic ratio TR (Leukemia L1210) | LD50 at 720 h [1] |
| --- | --- | --- | --- | --- | --- | --- |
| CC(C)CN(C(=O)N(CCCl)N=O)[C@H]1[C@H](O)[C@H](OC2CCCCC2)O[C@@H]1CO [Compound 163, 3-isobutyl-3-(cyclohexyl β-D-arabinofuranose-3-yl)-1-(2-chloroethyl)-1-nitrosourea] | 160 mg/kg | 4.91 mg/kg | 3/6 | > 365% | 32.6 | 550 mg/kg |
| COCCN(C(=O)N(CCCl)N=O)[C@H]1[C@H](OC2CCCCC2)OC[C@H](O)[C@@H]1O [Compound 155, 3-(2-methoxyethyl)-3-(cyclohexyl α-L-arabinopyranose-2-yl)-1-(2-chloroethyl)-1-nitrosourea] | 160 mg/kg | 2.64 mg/kg | 6/6 | > 700% | 60.6 | 520 mg/kg |
| CO[C@H]1O[C@H](CO)[C@@H](O)[C@H](NC(=O)N(CCCl)N=O)[C@H]1O [KCNUM, 3-(methyl α-D-glucopyranose-3-yl)-1-(2-chloroethyl)-1-nitrosourea, reference compound] | 25.4 mg/kg | 1.38 mg/kg | 4/6 | > 425% | 18.4 | 130 mg/kg |
| CCCCO[C@H]1O[C@H](CN(CCCC)C(=O)N(CCCl)N=O)[C@@H](O)[C@H](O)[C@H]1O [Compound 6, 3-n-butyl-3-(n-butyl α-D-glucopyranose-6-yl)-1-(2-chloroethyl)-1-nitrosourea] | 120 mg/kg | 3 mg/kg | 6/6 | > 700% | 40.0 | 390 mg/kg |
| Cc1ccc(CN(C[C@H]2O[C@H](OC3CCCCC3)[C@H](O)[C@@H](O)[C@@H]2O)C(=O)N(CCCl)N=O)cc1 [Compound 47, 3-(p-methylbenzyl)-3-(cyclohexyl α-D-glucopyranose-6-yl)-1-(2-chloroethyl)-1-nitrosourea] | 170 mg/kg | 4.97 mg/kg | 4/6 | > 440% | 34.2 | 545 mg/kg |
| COCC(C)O[C@H]1O[C@H](CN(CC(C)C)C(=O)N(CCCl)N=O)[C@@H](O)[C@@H](O)[C@@H]1O (stereo partly drawn) [Compound 144, 3-isobutyl-3-(1-methyl-2-methoxyethyl α-D-altropyranose-6-yl)-1-(2-chloroethyl)-1-nitrosourea] | 160 mg/kg | 2.8 mg/kg | 6/6 | > 700% | 57.1 | 580 mg/kg |
| CCCN(C(=O)N(CCCl)N=O)C1C(CO)OC(OCC(C)C)C(O)C1O [Compound 90, 3-n-propyl-3-(isobutyl α-D-glucopyranose-4-yl)-1-(2-chloroethyl)-1-nitrosourea] | 100 mg/kg | 3.07 mg/kg | 3/6 | > 350% | 32.6 | 325 mg/kg |
| CCC(C)OC1OC(CO)C(N(C(=O)N(CCCl)N=O)C(C)COC)C(O)C1O [Compound 96, 3-(1-methyl-2-methoxyethyl)-3-(sec-butyl α-D-glucopyranose-4-yl)-1-(2-chloroethyl)-1-nitrosourea] | 150 mg/kg | 4.46 mg/kg | 3/6 | > 355% | 33.6 | 450 mg/kg |
| CC(C)CN(C[C@H]1O[C@H](OCc2ccccc2)[C@H](O)[C@@H](O)[C@@H]1O)C(=O)N(CCCl)N=O [Compound 54, 3-isobutyl-3-(benzyl α-D-glucopyranose-6-yl)-1-(2-chloroethyl)-1-nitrosourea] | 150 mg/kg | 3.93 mg/kg | 4/6 | > 450% | 38.2 | 450 mg/kg |
| Cc1ccc(CN(C[C@H]2O[C@H](OCC(C)C)[C@H](O)[C@@H](O)[C@H]2O)C(=O)N(CCCl)N=O)cc1 [Compound 111, 3-(p-methylbenzyl)-3-(isobutyl α-D-galactopyranose-6-yl)-1-(2-chloroethyl)-1-nitrosourea] | 200 mg/kg | 7.04 mg/kg | 3/6 | > 345% | 28.4 | 600 mg/kg |
| COCC(C)N(C(=O)N(CCCl)N=O)C1C(O)C(CO)OC(OC2CCCCC2)C1O [Compound 87, 3-(1-methyl-2-methoxyethyl)-3-(cyclohexyl α-D-glucopyranose-3-yl)-1-(2-chloroethyl)-1-nitrosourea] | 200 mg/kg | 4.24 mg/kg | 6/6 | > 700% | 47.2 | 720 mg/kg |
| CCOCCO[C@H]1O[C@H](CO)[C@H](N(CC(C)C)C(=O)N(CCCl)N=O)[C@H](O)[C@H]1O [Compound 131, 3-isobutyl-3-(2-ethoxyethyl α-D-galacropyranose-4-yl)-1-(2-chloroethyl)-1-nitrosourea] | 160 mg/kg | 3.98 mg/kg | 4/6 | > 430% | 40.2 | 565 mg/kg |
| CC(C)CN(C[C@H]1O[C@@H](OCCN2CCOCC2)[C@H](O)[C@@H](O)[C@@H]1O)C(=O)N(CCCl)N=O [Compound 199, 3-isobutyl-3-(2-morpholinoethyl β-D-glucopyranose-6-yl)-1-(2-chloroethyl)-1-nitrosourea] | 160 mg/kg | 3.2 mg/kg | 6/6 | > 700% | 50.0 | 520 mg/kg |
| COCC(C)O[C@H]1O[C@H](CN(CC2CC2)C(=O)N(CCCl)N=O)[C@@H](O)[C@H](O)[C@H]1O (stereo partly drawn) [Compound 34, 3-cyclopropylmethyl-3-(1-methyl-2-methoxyethyl α-D-glucopyranose-6-yl)-1-(2-chloroethyl)-1-nitrosourea] | 150 mg/kg | 2.34 mg/kg | 6/6 | > 700% | 64.1 | 480 mg/kg |
| CC(C)CO[C@H]1O[C@H](CO)[C@@H](N(C(=O)N(CCCl)N=O)C2CCCCC2)[C@H](O)[C@@H]1O [Compound 137, 3-cyclohexyl-3-(isobutyl α-D-mannopyranose-4-yl)-1-(2-chloroethyl)-1-nitrosourea] | 170 mg/kg | 3.74 mg/kg | 4/6 | > 425% | 45.5 | 550 mg/kg |
| CCOCCCOC1OC(CO)C(O)C(O)C1N(C(=O)N(CCCl)N=O)C(C)CC [Compound 69, 3-sec-butyl-3-(3-ethoxy-n-propyl α-D-glucopyranose-2-yl)-1-(2-chloroethyl)-1-nitrosourea] | – | – | 4/6 | > 435% | – | 560 mg/kg |
| COc1cccc(CN(C[C@H]2O[C@H](OC3CCCCC3)[C@H](O)[C@@H](O)[C@@H]2O)C(=O)N(CCCl)N=O)c1OC [Compound 49, 3-(2,3-dimethoxybenzyl)-3-(cyclohexyl α-D-glucopyranose)-6-yl)-1-(2-chloroethyl-1-nitrosourea] | 170 mg/kg | 4.74 mg/kg | 4/6 | > 420% | 35.9 | 560 mg/kg |
| CCN(C(=O)N(CCCl)N=O)[C@H]1[C@@H](OCC(C)C)O[C@H](CO)[C@H](O)[C@@H]1O [Compound 121, 3-ethyl-3-(isobutyl α-D-galactopyranose-2-yl)-1-(2-chloroethyl)-1-nitrosourea] | 160 mg/kg | 5.99 mg/kg | 3/6 | > 350% | 26.7 | 480 mg/kg |
